For 36 compounds, EC50 results are on record in US8124647B2 (priority 2002, dated 2012).

The structures appear in SMILES notation. A value given as a limit tells only on which side of the number the result lay.

Assay [1] deals with T1, human androgen receptor (Homo sapiens, UniProt P10275).
T1 construct: expressed in transfected cells; host or cells: CHO cells, cell line CHO-AR-pMMTV-LUC 1G12-A5-CA
T1 sequence (P10275 1-920): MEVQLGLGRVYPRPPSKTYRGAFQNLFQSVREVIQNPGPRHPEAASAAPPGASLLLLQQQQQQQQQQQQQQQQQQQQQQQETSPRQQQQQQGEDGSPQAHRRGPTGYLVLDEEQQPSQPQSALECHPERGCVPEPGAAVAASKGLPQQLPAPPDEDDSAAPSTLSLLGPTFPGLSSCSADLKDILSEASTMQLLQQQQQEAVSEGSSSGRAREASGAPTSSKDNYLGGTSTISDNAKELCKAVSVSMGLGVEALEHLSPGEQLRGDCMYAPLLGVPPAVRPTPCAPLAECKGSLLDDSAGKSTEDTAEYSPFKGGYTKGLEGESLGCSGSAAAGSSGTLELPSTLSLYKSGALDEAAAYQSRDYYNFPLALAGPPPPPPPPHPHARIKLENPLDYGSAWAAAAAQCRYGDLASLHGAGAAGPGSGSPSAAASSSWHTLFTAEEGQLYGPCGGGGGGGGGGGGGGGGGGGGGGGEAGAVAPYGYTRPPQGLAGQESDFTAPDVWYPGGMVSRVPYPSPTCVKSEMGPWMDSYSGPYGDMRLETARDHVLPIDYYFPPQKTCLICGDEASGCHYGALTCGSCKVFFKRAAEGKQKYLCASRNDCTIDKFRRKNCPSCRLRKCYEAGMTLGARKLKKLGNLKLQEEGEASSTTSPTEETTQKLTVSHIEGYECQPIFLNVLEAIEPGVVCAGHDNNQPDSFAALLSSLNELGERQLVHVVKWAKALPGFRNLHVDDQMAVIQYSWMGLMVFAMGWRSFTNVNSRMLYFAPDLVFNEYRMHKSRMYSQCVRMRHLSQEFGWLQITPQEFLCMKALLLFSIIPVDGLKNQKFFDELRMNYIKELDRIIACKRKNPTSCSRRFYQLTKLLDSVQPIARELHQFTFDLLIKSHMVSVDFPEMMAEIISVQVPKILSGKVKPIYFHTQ
As to the kind of experiment: androgenic activity (EC50 and intrinsic activity), transactivation bioassay in CHO-AR-pMMTV-LUC cells (Table 4). The assay is classed as cell-based. The procedure:
(§1) Compounds were tested for their Androgen Receptor activity in a transactivation assay and in a binding assay.
(§2) The (anti-)androgenic activity of test compounds (EC50 and intrinsic activity) was determined in an in vitro bioassay of Chinese hamster ovary (CHO) cells stably transfected with the human androgen receptor expression plasmid and a reporter plasmid in which the MMTV-promoter is linked to the luciferase reporter gene. The cell-line CHO-AR-pMMTV-LUC 1G12-A5-CA is described in Schoonen et al. (2000), Journal of Steroid Biochemistry and Molecular Biology 74(4):213-222. The antiandrogenic activity of a test compound was determined by the inhibition of the transactivation via the androgen receptor of the enzyme luciferase in the presence of 1 nM DHT (5α-dihydrotestosterone, 17β-hydroxy-5α-androstan-3-one). Intrinsic activity of antiandrogenic activity was determined in the presence of the reference antiandrogen 2-Hydroxy-2-methyl-N-(4-nitro-3-trifluoromethyl-phenyl)-propionamide(Hydroxyflutamide), and set at 100%. For androgenic activity, maximal intrinsic activity in the presence of 100 nM DHT was set at 100%.

Assay [2] deals with T1, human androgen receptor. As to the kind of experiment: cell-based. The following applies: in the presence of 1 nM DHT. The procedure: as §1, §2
Where [3] appears, read: androgenic activity, read-out: ago EC50.
The mark [4] stands for this setting: antiandrogenic activity, read-out: ant EC50.

What is called EC50 is the concentration that produces a half-maximal response.

Take `CC(C)CNC(=O)c1ccc2c(Sc3ccccc3[N+](=O)[O-])cn(Cc3cc(F)cc(F)c3)c2c1` [Compound 42]: the EC50 on human androgen receptor [1] (setting [3]) is 5 to 100 nM; at human androgen receptor [2] (setting [4]), above 10000 nM.
On the same counts, the results for `COc1ccc2c(Sc3ccccc3[N+](=O)[O-])cn(Cc3cccc(OC(F)(F)F)c3)c2c1` [Compound 77] are 5 to 100 nM and above 10000 nM.
On the same counts, the results for `N#Cc1ccc2c(Sc3ccccc3[N+](=O)[O-])cn(Cc3cc(F)cc(F)c3)c2c1` [Compound 26, 1-(3,5-Difluoro-benzyl)-3-(2-nitro-phenylsulfanyl)-1H-indole-6-carbonitrile] are below 5 nM and above 10000 nM.
In the same order, the values of `O=[N+]([O-])c1ccccc1Sc1cn(Cc2ccccc2)c2ccccc12` [Compound 90] are below 1000 nM and above 10000 nM.
Regarding `CCN(CC)C(=O)c1ccc2c(Sc3ccccc3[N+](=O)[O-])cn(Cc3cc(F)cc(F)c3)c2c1` [Compound 32], the EC50 at human androgen receptor [1] (setting [3]) was 5 to 100 nM; on human androgen receptor [2] (setting [4]) it was below 1000 nM.
Consider `O=C(NC1CC1)c1ccc2c(Sc3ccccc3[N+](=O)[O-])cn(Cc3cc(F)cc(F)c3)c2c1` [Compound 44], for which the EC50 is below 5 nM at human androgen receptor [1] (setting [3]) and above 10000 nM on human androgen receptor [2] (setting [4]).
On the same counts, the results for `CC(C)NC(=O)c1ccc2c(Sc3ccccc3[N+](=O)[O-])cn(Cc3cc(F)cc(F)c3)c2c1` [Compound 46] are 5 to 100 nM and 5 to 100 nM.
In the same order, the values of `O=[N+]([O-])c1ccccc1Sc1cn(Cc2cc(F)cc(F)c2)c2ccccc12` [Compound 52] are 5 to 100 nM and above 10000 nM.
On the same counts, the results for `CN1CCN(C(=O)c2ccc3c(Sc4ccccc4[N+](=O)[O-])cn(Cc4cc(F)cc(F)c4)c3c2)CC1` [Compound 29] are 5 to 100 nM and above 10000 nM.
`COc1ccc2c(Sc3ccccc3[N+](=O)[O-])cn(Cc3ccc(C)cc3)c2c1` [Compound 85]: the EC50 on human androgen receptor [1] (setting [3]) was below 1000 nM; on human androgen receptor [2] (setting [4]), above 10000 nM.
Take `COc1ccc2c(Sc3ccccc3[N+](=O)[O-])cn(Cc3cccc([N+](=O)[O-])c3C)c2c1` [Compound 6]: the 50% effective concentration (EC50) at human androgen receptor [1] (ago EC50, androgenic activity) was below 1000 nM; at human androgen receptor [2] (setting [4]) it was above 10000 nM.
As to `O=C(NCc1cccnc1)c1ccc2c(Sc3ccccc3[N+](=O)[O-])cn(Cc3cc(F)cc(F)c3)c2c1` [Compound 35], the 50% effective concentration (EC50) on human androgen receptor [1] (setting [3]) is 5 to 100 nM; at human androgen receptor [2] (setting [4]), above 10000 nM.
In the same order, the values of `COc1ccc2c(Sc3ccccc3[N+](=O)[O-])cn(Cc3ccc(C#N)cc3)c2c1` [Compound 82] are 5 to 100 nM and above 10000 nM.
In the same order, the values of `COc1ccc2c(Sc3ccccc3[N+](=O)[O-])cn(Cc3cccc(F)c3)c2c1` [Compound 71] are below 5 nM and above 10000 nM.
`O=[N+]([O-])c1ccccc1Sc1cn(Cc2cc(F)cc(F)c2)c2cc(CO)ccc12` [Compound 24]: the EC50 on human androgen receptor [1] (setting [3]) is 5 to 100 nM; at human androgen receptor [2] (setting [4]), above 10000 nM.
In the same order, the values of `CCCNC(=O)c1ccc2c(Sc3ccccc3[N+](=O)[O-])cn(Cc3cc(F)cc(F)c3)c2c1` [Compound 48] are 5 to 100 nM and below 1000 nM.
On the same counts, the results for `COc1ccc2c(Sc3ccccn3)cn(Cc3cc(F)cc(F)c3)c2c1` [Compound 65, 1-(3,5-Difluoro-benzyl)-6-methoxy-3-(pyridin-2-ylsulfanyl)-1H-indole] are 5 to 100 nM and above 10000 nM.
In the same order, the values of `COc1ccc2c(Sc3ccccc3[N+](=O)[O-])cn(CC3CCCCC3)c2c1` [Compound 89] are 5 to 100 nM and below 5 nM.
With `O=[N+]([O-])c1ccc2c(Sc3ccccc3[N+](=O)[O-])cn(Cc3cc(F)cc(F)c3)c2c1` [Compound 60], the EC50 at human androgen receptor [1] (ago EC50, androgenic activity) is below 5 nM; on human androgen receptor [2] (ant EC50, antiandrogenic activity) it was above 10000 nM.
As for `O=[N+]([O-])c1ccccc1Sc1cn(Cc2cc(F)cc(F)c2)c2cc(Br)ccc12` [Compound 22], the EC50 at human androgen receptor [1] (setting [3]) was 5 to 100 nM; on human androgen receptor [2] (setting [4]) it was above 10000 nM.
On the same counts, the results for `O=[N+]([O-])c1ccccc1Sc1cn(Cc2cc(F)cc(F)c2)c2cccc(Cl)c12` [Compound 54] are 5 to 100 nM and above 10000 nM.
In the same order, the values of `COc1ccc2c(Sc3ccccc3[N+](=O)[O-])cn(Cc3cccc(C)c3F)c2c1` [Compound 2] are below 1000 nM and above 10000 nM.
`O=C(NCC1CC1)c1ccc2c(Sc3ccccc3[N+](=O)[O-])cn(Cc3cc(F)cc(F)c3)c2c1` [Compound 41]: the EC50 on human androgen receptor [1] (setting [3]) is below 5 nM; on human androgen receptor [2] (setting [4]), above 10000 nM.
As to `O=C(c1ccc2c(Sc3ccccc3[N+](=O)[O-])cn(Cc3cc(F)cc(F)c3)c2c1)N1CCCC1` [Compound 27], the EC50 is 5 to 100 nM on human androgen receptor [1] (setting [3]) and above 10000 nM at human androgen receptor [2] (setting [4]).
On the same counts, the results for `O=C(c1ccc2c(Sc3ccccc3[N+](=O)[O-])cn(Cc3cc(F)cc(F)c3)c2c1)N1CCOCC1` [Compound 28] are 5 to 100 nM and above 10000 nM.
In the same order, the values of `COc1ccc2c(Sc3ccccc3[N+](=O)[O-])cn(Cc3cc(F)ccc3F)c2c1` [Compound 1] are 5 to 100 nM and above 10000 nM.
Take `COc1ccc2c(Sc3ccccc3[N+](=O)[O-])cn(Cc3ccccc3C)c2c1` [Compound 7]: the half-maximal effective concentration (EC50) was 5 to 100 nM on human androgen receptor [1] (setting [3]) and above 10000 nM at human androgen receptor [2] (setting [4]).
In the same order, the values of `O=C(NCc1ccco1)c1ccc2c(Sc3ccccc3[N+](=O)[O-])cn(Cc3cc(F)cc(F)c3)c2c1` [Compound 34] are 5 to 100 nM and above 10000 nM.
On the same counts, the results for `COc1ccc2c(Sc3ccccc3[N+](=O)[O-])cn(Cc3ccc(Cl)cc3)c2c1` [Compound 81] are below 1000 nM and below 5 nM.
In the case of `COc1ccc2c(Sc3ccccc3[N+](=O)[O-])cn(Cc3ccccc3F)c2c1` [Compound 5], the EC50 at human androgen receptor [1] (setting [3]) is below 1000 nM; on human androgen receptor [2] (setting [4]) it was above 10000 nM.
As to `COc1ccc2c(Sc3ccccc3[N+](=O)[O-])cn(Cc3cccnc3)c2c1` [Compound 75], the EC50 on human androgen receptor [1] (setting [3]) is below 5 nM; at human androgen receptor [2] (setting [4]), above 10000 nM.
On the same counts, the results for `COc1ccc2c(Sc3ccccc3[N+](=O)[O-])cn(Cc3ccc(F)cc3)c2c1` [Compound 83] are 5 to 100 nM and above 10000 nM.
In the same order, the values of `O=[N+]([O-])c1ccccc1Sc1cn(Cc2cc(F)cc(F)c2)c2cc(C(F)(F)F)ccc12` [Compound 23] are below 5 nM and above 10000 nM.
On the same counts, the results for `COc1ccc2c(Sc3ccccc3[N+](=O)[O-])cn(Cc3ccc(Cl)c(Cl)c3)c2c1` [Compound 14] are below 1000 nM and above 10000 nM.
As for `CN(C)C(=O)c1ccc2c(Sc3ccccc3[N+](=O)[O-])cn(Cc3cc(F)cc(F)c3)c2c1` [Compound 49], the results for the EC50 at human androgen receptor [1] (setting [3]) and at human androgen receptor [2] (setting [4]) were below 5 nM and above 10000 nM, respectively.
On the same counts, the results for `CN(C)C(=O)CNC(=O)c1ccc2c(Sc3ccccc3[N+](=O)[O-])cn(Cc3cc(F)cc(F)c3)c2c1` [Compound 40] are 5 to 100 nM and above 10000 nM.
